Activity calls are given as the source filed them.
Experiments:
Procathepsin L = Procathepsin L (Homo sapiens, UniProt P07711)
Aspartyl aminopeptidase = Aspartyl aminopeptidase (Plasmodium falciparum 3D7, UniProt Q8I2J3)
[1] = target: T1, Rac GTPase-activating protein 1 (Homo sapiens, UniProt Q9H0H5); assay: MgcRacGAP GTPase-activating activity inhibitors, confirmation, biochemical, ADP Hunter fluorescence, primary and confirmatory (AID 624330); format: functional
T1 sequence (Q9H0H5 whole entry): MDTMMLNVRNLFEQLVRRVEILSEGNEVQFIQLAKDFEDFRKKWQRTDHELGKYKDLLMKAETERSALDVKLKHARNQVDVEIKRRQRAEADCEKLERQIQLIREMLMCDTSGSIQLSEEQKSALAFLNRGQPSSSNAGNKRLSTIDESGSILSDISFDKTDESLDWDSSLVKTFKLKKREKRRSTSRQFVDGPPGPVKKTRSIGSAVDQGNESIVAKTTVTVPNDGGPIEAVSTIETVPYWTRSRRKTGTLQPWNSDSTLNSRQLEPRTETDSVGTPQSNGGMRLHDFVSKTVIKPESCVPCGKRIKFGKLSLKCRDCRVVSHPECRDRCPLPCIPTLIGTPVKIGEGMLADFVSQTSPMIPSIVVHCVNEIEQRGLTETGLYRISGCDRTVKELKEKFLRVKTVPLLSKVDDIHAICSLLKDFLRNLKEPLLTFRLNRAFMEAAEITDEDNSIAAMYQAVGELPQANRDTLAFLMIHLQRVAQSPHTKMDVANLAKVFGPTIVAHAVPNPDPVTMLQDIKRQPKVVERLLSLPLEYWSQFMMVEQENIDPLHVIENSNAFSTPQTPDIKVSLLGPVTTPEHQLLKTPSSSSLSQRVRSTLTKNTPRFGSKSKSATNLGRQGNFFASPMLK

[2] = target: T2, Alkaline phosphatase, tissue-nonspecific isozyme (Homo sapiens, UniProt P05186)
T2 sequence (P05186 whole entry): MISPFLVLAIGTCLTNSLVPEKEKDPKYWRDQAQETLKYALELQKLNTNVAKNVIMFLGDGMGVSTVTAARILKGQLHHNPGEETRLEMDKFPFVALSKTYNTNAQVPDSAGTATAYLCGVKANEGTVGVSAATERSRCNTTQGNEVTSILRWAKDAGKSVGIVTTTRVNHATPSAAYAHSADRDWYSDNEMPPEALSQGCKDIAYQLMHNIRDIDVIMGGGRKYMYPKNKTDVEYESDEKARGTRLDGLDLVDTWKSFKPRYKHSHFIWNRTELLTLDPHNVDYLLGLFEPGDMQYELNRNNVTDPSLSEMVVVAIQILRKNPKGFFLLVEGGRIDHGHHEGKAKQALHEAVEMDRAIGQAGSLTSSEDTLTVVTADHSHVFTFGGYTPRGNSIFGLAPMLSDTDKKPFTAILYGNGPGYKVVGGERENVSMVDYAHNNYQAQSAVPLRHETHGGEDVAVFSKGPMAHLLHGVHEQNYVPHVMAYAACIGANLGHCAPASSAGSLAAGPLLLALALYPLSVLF

[3] = target: Eukaryotic translation initiation factor 4H (Homo sapiens, UniProt Q15056); assay: human eIF4H binding inhibitors, primary screen, translation initiation inhibitor project, biochemical, uHTS, fluorescence polarization (AID 2012)
[4] = target: Polyadenylate-binding protein 1 (Homo sapiens, UniProt P11940); assay: PABP poly(A) RNA binding inhibitors, primary screen, biochemical, fluorescence polarization, uHTS (AID 2014)
Polyadenylate-binding protein 1, sequence (P11940 whole entry): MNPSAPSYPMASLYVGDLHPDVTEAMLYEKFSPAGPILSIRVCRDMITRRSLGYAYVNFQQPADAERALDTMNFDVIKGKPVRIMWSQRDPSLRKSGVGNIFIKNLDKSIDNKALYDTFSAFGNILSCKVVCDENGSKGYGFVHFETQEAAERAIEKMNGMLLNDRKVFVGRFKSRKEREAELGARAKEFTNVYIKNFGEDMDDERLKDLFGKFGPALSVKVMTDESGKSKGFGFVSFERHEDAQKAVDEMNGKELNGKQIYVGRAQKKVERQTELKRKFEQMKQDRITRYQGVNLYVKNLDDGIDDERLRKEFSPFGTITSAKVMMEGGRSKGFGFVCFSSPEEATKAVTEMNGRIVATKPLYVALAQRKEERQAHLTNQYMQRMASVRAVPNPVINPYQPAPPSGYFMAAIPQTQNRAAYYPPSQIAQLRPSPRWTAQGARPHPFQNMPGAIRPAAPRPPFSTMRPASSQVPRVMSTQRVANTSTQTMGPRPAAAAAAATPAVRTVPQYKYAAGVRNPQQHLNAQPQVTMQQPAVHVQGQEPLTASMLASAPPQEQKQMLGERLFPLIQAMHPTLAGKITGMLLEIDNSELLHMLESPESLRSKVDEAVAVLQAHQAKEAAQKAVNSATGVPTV

[5] = target: Acyl-homoserine lactone acylase PvdQ (Pseudomonas aeruginosa (strain LESB58), UniProt Q9I194); assay: P. aeruginosa PvdQ acylase inhibitors, dose response, biochemical, fluorescence, plate reader and imaging, cherry-picks (AID 493231)
Acyl-homoserine lactone acylase PvdQ, sequence (Q9I194 24-193 limits assumed): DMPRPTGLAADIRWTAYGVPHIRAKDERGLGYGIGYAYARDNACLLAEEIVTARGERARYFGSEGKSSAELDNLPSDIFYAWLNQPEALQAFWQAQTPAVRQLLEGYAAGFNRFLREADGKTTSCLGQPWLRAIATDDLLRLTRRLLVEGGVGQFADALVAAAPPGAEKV
Acyl-homoserine lactone acylase PvdQ, sequence (Q9I194 217-762 limits assumed): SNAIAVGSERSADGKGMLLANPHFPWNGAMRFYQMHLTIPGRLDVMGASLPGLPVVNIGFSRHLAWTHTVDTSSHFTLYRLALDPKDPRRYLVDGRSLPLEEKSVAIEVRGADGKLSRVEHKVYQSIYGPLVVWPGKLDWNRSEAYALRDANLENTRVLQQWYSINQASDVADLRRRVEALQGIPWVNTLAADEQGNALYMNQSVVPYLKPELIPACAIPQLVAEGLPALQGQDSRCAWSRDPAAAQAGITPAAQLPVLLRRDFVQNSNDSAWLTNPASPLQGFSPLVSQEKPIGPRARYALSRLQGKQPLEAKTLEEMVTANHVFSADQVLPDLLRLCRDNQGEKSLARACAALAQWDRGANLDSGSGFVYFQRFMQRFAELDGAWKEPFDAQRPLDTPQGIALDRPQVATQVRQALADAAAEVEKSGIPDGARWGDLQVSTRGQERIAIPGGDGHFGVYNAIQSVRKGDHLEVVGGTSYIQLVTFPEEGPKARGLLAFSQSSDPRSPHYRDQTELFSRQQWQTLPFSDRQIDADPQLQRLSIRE

[6] = Luminescence Cell-Based Dose Response HTS to Identify Inhibitors of 5'UTR Stem-Loop Driven Prion Protein mRNA Translation in H4 Neuroglioblastoma Cells. [Related pubchem assays: 1827 (Project Summary), 1813 (Primary HTS)]; format: functional
[7] = cytotoxicity in HEK-293T NF-kB-Luc cells, dose response, cytotoxicity control for B/T-cell NF-kB inhibitor project, cell-based, uHTS hits (AID 489019); format: functional;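 further: IC50 reflects cytotoxicity as loss of cell viability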
cells = format: functional, cell-based
Jurkat = assay: antigen receptor-induced NF-kB inhibitors, dose response, Jurkat, luciferase reporter, luminescence, B- and T-cell (AID 489004); format: functional, cell-based; conditions: Homo sapiens;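 further: NF-kB luciferase reporter Jurkat cells stimulated with PMA plus ionomycin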
[8] = inhibitors of SNCA 5'UTR-driven translation, confirmation, luminescence, H4 neuroglioblastoma cells, dose confirmation (AID 2454); format: functional, cell-based;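 further: H4 neuroglioblastoma cells carrying an alpha-synuclein 5'UTR luciferase reporter; potency for inhibition of the luciferase signal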
[9] = luciferase reporter signal reduction – luminescence, H4-C neuroglioblastoma cells, dose response (AID 2458); format: functional, cell-based;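 further: H4 neuroglioblastoma cells stably carrying a luciferase reporter gene fusion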
[10] = inhibitors of SNCA 5'UTR-driven reporter translation, confirmation, H4 neuroglioma cells, luminescence (AID 1988); format: functional, cell-based
[11] = inhibitors of firefly luciferase expression or activity, dose response, H4 neuroglioma cells, luminescence (AID 1990); format: functional, cell-based

Aspartyl aminopeptidase, sequence (Q8I2J3 whole entry): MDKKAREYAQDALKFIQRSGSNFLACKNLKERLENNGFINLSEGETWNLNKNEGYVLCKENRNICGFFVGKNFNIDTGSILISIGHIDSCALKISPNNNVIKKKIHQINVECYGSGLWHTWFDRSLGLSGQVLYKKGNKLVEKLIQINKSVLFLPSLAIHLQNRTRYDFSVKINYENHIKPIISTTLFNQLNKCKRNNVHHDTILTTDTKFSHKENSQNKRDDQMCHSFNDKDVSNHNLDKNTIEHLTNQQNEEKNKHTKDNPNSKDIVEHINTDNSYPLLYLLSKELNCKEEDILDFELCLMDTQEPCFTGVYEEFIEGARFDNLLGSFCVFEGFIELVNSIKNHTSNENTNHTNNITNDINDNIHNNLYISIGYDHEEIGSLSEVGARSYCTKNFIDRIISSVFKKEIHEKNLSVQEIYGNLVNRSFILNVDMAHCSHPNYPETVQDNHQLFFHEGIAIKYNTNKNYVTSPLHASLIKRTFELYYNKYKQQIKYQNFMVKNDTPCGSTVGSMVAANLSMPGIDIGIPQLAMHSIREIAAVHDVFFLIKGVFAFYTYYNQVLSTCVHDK
Procathepsin L, sequence (P07711 whole entry): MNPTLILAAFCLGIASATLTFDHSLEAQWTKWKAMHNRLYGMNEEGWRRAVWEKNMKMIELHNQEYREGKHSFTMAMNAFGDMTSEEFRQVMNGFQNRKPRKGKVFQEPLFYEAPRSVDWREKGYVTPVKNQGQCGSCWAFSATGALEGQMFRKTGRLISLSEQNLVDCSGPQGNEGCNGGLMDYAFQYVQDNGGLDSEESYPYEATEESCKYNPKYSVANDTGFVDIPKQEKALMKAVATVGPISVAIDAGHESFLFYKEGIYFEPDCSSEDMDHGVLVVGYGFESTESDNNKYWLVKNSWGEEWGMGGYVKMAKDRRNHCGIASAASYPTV

Cc1cc(O)nc2c(N=Nc3ccc(O)cc3)c(N)nn12
IC50 (Procathepsin L): > 59600 nM (not active)
IC50 (Aspartyl aminopeptidase): 1510 nM (active)
IC50 [1]: 12100 nM (active)

CCOC(=O)CSc1nc2ccccc2c(=O)n1CCC(=O)NCCc1ccc(OC)c(OC)c1
EC50 [2]: > 100000 nM (not active)

Cc1ccccc1/C=C/c1cccc[n+]1C
IC50 [3]: > 100000 nM (inactive)
IC50 [4]: 7430 nM (active)

N#Cc1cc([N+](=O)[O-])ccc1N1CCCC1
AC50 [5]: 3790 nM (active)

CC1CCc2c(sc(NC(=O)CSc3nc[nH]n3)c2C#N)C1 (stereo not given)
EC50 [6]: < 100 nM (active)
IC50 [7]: > 80000 nM (inactive)
EC50 (cells): 337 nM (active)
IC50 (Jurkat): 520 nM (active)
EC50 [8]: 323 nM (active)
EC50 [9]: 232 nM (active)
EC50 [10]: < 100 nM (active)
EC50 [11]: < 100 nM (active)

Source: ChEMBL document CHEMBL1201862, “PubChem BioAssay data set” (2004)
